In the assay the test system is SMARTCAR-MTH1-wt-HiBiT (Jurkat.7 cells). In words: HiBit Lytic Assay (HiBit DC50, MTH1 degraders of Table 2). The assay is classed as cell-based, human. The note with it: Jurkat.7 SMARTCAR-MTH1-wt-HiBiT cells, compound treatment time 4 hr, 11-point half log dose response. The procedure: Example 3. HiBit Lytic Assay
• Compound is made at 10 mM, half log dilution, 11 points. • MDR plates can also be ordered from Frontier with same format. • 1. Barcode a 384LDV plate (384-well Low Dead Volume Microplate, Labcyte LP-0200) (Echo compatible) on the left side. • 2. Transfer 13.6 μL of 10 mM compound into column 1 of LDV plate (Labcyte). • 3. Fill column 2-11 and column 23 of MDR plate with 9.30 μL of DMSO. • 4. Serial dilute 3.16 fold from column 1 to 2 by transferring 4.30 μL from column 1 to column 2, and so on to column 11. *Change tip in every dilution to prevent compound carryover effect! • 5. Seal the plate with Plate Sealer, then store the MDR plate at room temperature for short term storage and in −20° C. for long term storage.
• Cells are treated with 30 nL of each compound at 10 mM, half log dilution, 11 points with final concentration of 1000 nM or 833 nM, half log dilution, 11 points, in duplicates. Final DMSO concentration is 0.1%. • 1. Barcode the plates made on the left side and label the plates with silver marker. • 2. Dispense with the following scheme: • a. 30 nL of compound into corresponding wells in cell plates via Echo550 with “MDR32_HiBiT16_30 nL”. Top concentration will be 1000 nM. • 3. Seal the plate with Plate Sealer.
• Cells are dispensed at density specified in Cell Line Table in 384-well microplate. • 1. Culture cells to between 50-80% of confluence in sterile culture flasks of appropriate size. • 2. For Adherent Cell Lines: • a. Aspirate off growth media in culture flask, and wash off the Phenol Red media with 5 mL of 1×PBS. • b. Add 5 mL of Trypsin to the cells, incubate at 37° C. for 5 minutes. • c. Add 5 mL of growth media to the trypsinzed cells, and resuspend. • 3. Remove 10 μL of cells, and resuspend the cells with 10 μL of Trypan Blue. Insert the solution to counting chamber slide, and count the cells via cell counter. • 4. Adjust the cell concentration to specified plating density, and strain the cells with cell strainer. • 5. Dispense the cells via E1-ClipTip™ Electronic Multichannel Pipettes or Multidrop™ Combi Reagent Dispenser with Standard tube dispensing cassette: • a. Prime the cassette with 10-20 mL of ddH2O. • b. Prime the cassette with 10-20 mL of cells. • c. Dispense the cells at low speed for 30 μL/well in Corning® 384 Well Low Flange Black Flat Bottom Polystyrene TC-Treated Microplate. • d. Wash the cassette with 10-20 mL of ddH2O, follow by 10-20 mL of 70% EtOH, then again with 10-20 mL of ddH2O. • 6. Incubate the plates at 37° C.×compound treatment time.
• 1. If not already, bring Nano-Glo® HiBiT Lytic Buffer to room temperature. • 2. Determine the amount of reagent needed. A volume of reagent equal to the volume of media in the well should be added (i.e. 30 μL of cells will need 30 μL of HiBiT Lytic reagent). • 3. Into a given volume of buffer, dilute the substrate 50-fold and the LgBiT protein 100-fold. For example, to make 10 ml of reagent, add the following: • 10 ml Nano-Glo® HiBiT Lytic Buffer • 200 μl Nano-Glo® HiBiT Lytic Substrate • 100 μl LgBiT Protein • The reagent should be reconstituted immediately before use. However, once reconstituted, it should take about 4 hours for the activity to decrease 10%. • 4. Cool down the cell plate to room temperature for 10-15 minutes without lid. • 5. Dispense the HiBiT Lytic Reagent via E1-ClipTip™ Electronic Multichannel Pipettes or Multidrop™ Combi Reagent Dispenser with Standard tube dispensing cassette: • a. Prime the cassette with 10-20 mL of ddH2O. • b. Prime the cassette with 10-20 mL of CTG 2.0. • c. Dispense the HiBiT Lytic Reagent at medium speed for 30 μL/well in cell plate to column 1-23 (column 24 will be used as plate background). • d. Wash the cassette with 10-20 mL of ddH2O, follow by 10-20 mL of 70% EtOH, then again with 10-20 mL of ddH2O. • 6. Incubate the cell plate at room temperature for 10 minutes without lid. • 7. […]
In general terms: The HiBiT peptide binds its large partner to form an active luciferase.
In turn, `CNC(=O)c1cnc2cc(OC)c(-c3ccc(C(=O)NCCCCNC(=O)C(C)Nc4cccc5c4C(=O)N(C4CCC(=O)NC4=O)C5=O)nc3)cc2c1Nc1ccccc1` (stereo in doubt) [Compound 384, 6-(6-((4-((2S)-2-((2-(2,6-dioxopiperidin-3-yl)-1,3-dioxoisoindolin-4-yl)amino)propanamido)butyl)carbamoyl)pyridin-3-yl)-7-methoxy-N-methyl-4-(phenylamino)quinoline-3-carboxamide] gave a DC50 below 100 nM.
In turn, `NC(=O)c1cnc2ccc(-c3ccc(C(=O)NCCCCNC(=O)COc4cccc5c4C(=O)N(C4CCC(=O)NC4=O)C5=O)cc3)cc2c1Nc1ccccc1` (stereo not shown) [Compound 300, 4-anilino-6-[4-[4-[[2-[2-(2,6-dioxo-3-piperidyl)-1,3-dioxo-isoindolin-4-yl]oxyacetyl]amino]butylcarbamoyl]phenyl]quinoline-3-carboxamide] yielded a DC50 below 100 nM.
As for `CN(CC(=O)NCCCCNC(=O)c1ccc(-c2ccc3ncc(C(N)=O)c(Nc4ccccc4)c3c2)cc1)c1cccc2c1C(=O)N(C1CCC(=O)NC1=O)C2=O` (stereo not shown) [Compound 301, 4-anilino-6-[4-[4-[[2-[[2-(2,6-dioxo-3-piperidyl)-1,3-dioxo-isoindolin-4-yl]-methyl-amino]acetyl]amino]butylcarbamoyl]phenyl]quinoline-3-carboxamide], the figure is below 100 nM; as for `NC(=O)c1cnc2ccc(-c3ccc(C(=O)NCCCCNC(=O)CNc4cccc5c4C(=O)N(C4CCC(=O)NC4=O)C5=O)cc3)cc2c1Nc1ccccc1` (stereo not shown) [Compound 302, 6-(4-((4-(2-((2-(2,6-dioxopiperidin-3-yl)-1,3-dioxoisoindolin-4 yl)amino)acetamido)butyl)carbamoyl)phenyl)-4-(phenylamino)quinoline-3-carboxamide], below 100 nM; as for `NC(=O)c1cnc2ccc(-c3ccc(C(=O)NCCCCNC(=O)CNc4cccc5c4CN(C4CCC(=O)NC4=O)C5=O)cc3)cc2c1Nc1ccccc1` (stereo not shown) [Compound 303, 4-anilino-6-[4-[4-[[2-[[2-(2,6-dioxo-3-piperidyl)-1-oxo-isoindolin-4-yl]amino]acetyl]amino]butylcarbamoyl]phenyl]quinoline-3-carboxamide], below 100 nM.
As for `NC(=O)c1cnc2ccc(-c3ccc(C(=O)NCCCNC(=O)COc4cccc5c4C(=O)N(C4CCC(=O)NC4=O)C5=O)cc3)cc2c1Nc1ccccc1` (stereo not shown) [Compound 306, 6-(4-((3-(2-((2-(2,6-dioxopiperidin-3-yl)-1,3-dioxoisoindolin-4-yl)oxy)acetamido)propyl)carbamoyl)phenyl)-4-(phenylamino)quinoline-3-carboxamide], the figure is below 100 nM; as for `NC(=O)c1cnc2ccc(-c3ccc(C(=O)NCCCNC(=O)CNc4cccc5c4C(=O)N(C4CCC(=O)NC4=O)C5=O)cc3)cc2c1Nc1ccccc1` (stereo not shown) [Compound 307, 6-(4-((3-(2-((2-(2,6-dioxopiperidin-3-yl)-1,3-dioxoisoindolin-4-yl)amino)acetamido)propyl)carbamoyl)phenyl)-4-(phenylamino)quinoline-3-carboxamide], below 100 nM.
The result for `NC(=O)c1cnc2ccc(-c3ccc(C(=O)N[C@H]4CC[C@@H](NC(=O)CNC(=O)COc5cccc6c5C(=O)N(C5CCC(=O)NC5=O)C6=O)CC4)cc3)cc2c1Nc1ccccc1` (stereo partly shown) [Compound 308, 6-(4-(((1s,4s)-4-(2-(2-((2-(2,6-dioxopiperidin-3-yl)-1,3-dioxoisoindolin-4-yl)oxy)acetamido)acetamido)cyclohexyl)carbamoyl)phenyl)-4-(phenylamino)quinoline-3-carboxamide] reads below 100 nM; that for `NC(=O)c1cnc2ccccc2c1Nc1ccc(-c2ccc(C(=O)NCCCCNC(=O)COc3cccc4c3C(=O)N(C3CCC(=O)NC3=O)C4=O)cc2)cc1` (stereo not shown) [Compound 309, 4-[4-[4-[4-[[2-[2-(2,6-dioxo-3-piperidyl)-1,3-dioxo-isoindolin-4-yl]oxyacetyl]amino]butylcarbamoyl]phenyl]anilino]quinoline-3-carboxamide], below 100 nM; that for `NC(=O)c1cnc2ccc(N3CCN(C(=O)CCCCCNC(=O)COc4cccc5c4C(=O)N(C4CCC(=O)NC4=O)C5=O)CC3)cc2c1Nc1ccccc1` (stereo not shown) [Compound 310, 6-(4-(6-(2-((2-(2,6-dioxopiperidin-3-yl)-1,3-dioxoisoindolin-4-yl)oxy)acetamido)hexanoyl)piperazin-1-yl)-4-(phenylamino)quinoline-3-carboxamide], below 1000 nM.
`CN(CC(=O)NCCOCCNC(=O)c1ccc(-c2ccc3ncc(C(N)=O)c(Nc4ccccc4)c3c2)cc1)c1cccc2c1C(=O)N(C1CCC(=O)NC1=O)C2=O` (stereo not shown) [Compound 311, 4-anilino-6-[4-[2-[2-[[2-[[2-(2,6-dioxo-3-piperidyl)-1,3-dioxo-isoindolin-4-yl]-methyl-amino]acetyl]amino]ethoxy]ethylcarbamoyl]phenyl]quinoline-3-carboxamide] had a 50% degradation concentration (DC50) below 1000 nM.
As for `CN(CC(=O)NCCCCCC(=O)N1CCC(c2ccc3ncc(C(N)=O)c(Nc4ccccc4)c3c2)CC1)c1cccc2c1C(=O)N(C1CCC(=O)NC1=O)C2=O` (stereo not shown) [Compound 312, 4-anilino-6-[1-[6-[[2-[[2-(2,6-dioxo-3-piperidyl)-1,3-dioxo-isoindolin-4-yl]-methyl-amino]acetyl]amino]hexanoyl]-4-piperidyl]quinoline-3-carboxamide], the figure is below 1000 nM; as for `CNC(=O)c1cnc2ccc(-c3ccc(C(=O)NCCCCNC(=O)COc4cccc5c4C(=O)N(C4CCC(=O)NC4=O)C5=O)cc3)cc2c1Nc1ccccc1` (stereo not shown) [Compound 340, 4-anilino-6-[4-[4-[[2-[2-(2,6-dioxo-3-piperidyl)-1,3-dioxo-isoindolin-4-yl]oxyacetyl]amino]butylcarbamoyl]phenyl]-N-methyl-quinoline-3-carboxamide], below 100 nM.
The result for `CNC(=O)c1cnc2ccc(-c3ccc(C(=O)NCCCC(=O)N4CCN(c5cccc6c5C(=O)N(C5CCC(=O)NC5=O)C6=O)CC4)cc3)cc2c1Nc1ccccc1` (stereo not shown) [Compound 343, 4-anilino-6-[4-[[4-[4-[2-(2,6-dioxo-3-piperidyl)-1,3-dioxo-isoindolin-4-yl]piperazin-1-yl]-4-oxo-butyl]carbamoyl]phenyl]-N-methyl-quinoline-3-carboxamide] reads below 100 nM.
As for `CNC(=O)c1cnc2cc(OC)c(-c3ccc(C(=O)NCCCCNC(=O)CNc4cccc5c4C(=O)N(C4CCC(=O)NC4=O)C5=O)cc3)cc2c1Nc1ccccc1` (stereo not shown) [Compound 344, 6-(4-((4-(2-((2-(2,6-dioxopiperidin-3-yl)-1,3-dioxoisoindolin-4-yl)amino)acetamido)butyl)carbamoyl)phenyl)-7-methoxy-N-methyl-4-(phenylamino)quinoline-3-carboxamide], the figure is below 100 nM; as for `CNC(=O)c1cnc2cc(OC)c(-c3ccc(C(=O)NCCCCNC(=O)CN(C)c4cccc5c4C(=O)N(C4CCC(=O)NC4=O)C5=O)cc3)cc2c1Nc1ccccc1` (stereo not shown) [Compound 345, 6-(4-((4-(2-((2-(2,6-dioxopiperidin-3-yl)-1,3-dioxoisoindolin-4-yl)(methyl)amino)acetamido)butyl)carbamoyl)phenyl)-7-methoxy-N-methyl-4-(phenylamino)quinoline-3-carboxamide], below 100 nM.

One may read the DC50 as the midpoint of the concentration-degradation curve. Read a low DC50 as a more potent degrader.

Source of the values: patent US20210198256A1, “COMPOUNDS FOR THE DEGRADATION OF BRD9 OR MTH1” (C4 Therapeutics, Inc., priority 2018, published 2021).
